We go through 28 molecules from patent US9458172B2, “Pyridinyl and pyrimidinyl sulfoxide and sulfone derivatives” (priority 2012, dated 2016).

Each structure is given as a SMILES string. Like-named read-outs stand apart in the source and are kept apart here.

The target of one assay is NAMPT (Homo sapiens (Human), UniProt P43490). As to the kind of experiment: Biochemical Inhibition Assay (NAMPT enzymatic reaction, NMN quantified by mass spectrometry). The following applies: 33 nM recombinant His-tagged NAMPT, 1 μM NAM, 30 min at rt. The procedure, abridged:
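His-tagged human NAMPT from E. coli preincubated 15 min at rt with compound in 50 mM Hepes pH 7.5, 50 mM NaCl, 5 mM MgCl2, 1 mM THP, then reacted 30 min at rt with 1 μM NAM, […] PRPP, 2.5 mM ATP. NMN quantified by RapidFire mass spectrometry, normalized to L-Cystathionine, background subtracted.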

The test system of a further assay is A2780 cells. As to the kind of experiment: In-Vitro Cell Proliferation Assay (SRB). The following applies: Homo sapiens, A2780, 72 h.
Where [1] appears, read: read-out: Cell Proliferation (IC50), A2780 cells, 72 h, sulforhodamine B.
The mark [2] stands for this setting: read-out: Cell Proliferation (IC50).

NAMPT, sequence (P43490 whole entry): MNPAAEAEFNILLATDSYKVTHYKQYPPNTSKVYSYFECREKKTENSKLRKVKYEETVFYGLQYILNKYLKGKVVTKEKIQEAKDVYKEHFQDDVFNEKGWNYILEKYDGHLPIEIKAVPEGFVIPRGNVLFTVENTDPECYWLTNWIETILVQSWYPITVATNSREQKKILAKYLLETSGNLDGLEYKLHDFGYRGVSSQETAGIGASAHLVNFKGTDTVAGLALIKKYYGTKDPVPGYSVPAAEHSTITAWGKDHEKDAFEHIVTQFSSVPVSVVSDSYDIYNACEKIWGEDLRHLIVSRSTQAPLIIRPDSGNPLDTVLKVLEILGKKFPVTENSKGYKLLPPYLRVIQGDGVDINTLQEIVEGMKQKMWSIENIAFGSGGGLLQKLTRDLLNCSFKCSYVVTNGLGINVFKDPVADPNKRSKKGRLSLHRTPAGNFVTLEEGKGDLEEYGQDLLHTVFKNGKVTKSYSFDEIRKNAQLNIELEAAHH

Regarding `COc1ccc(S(=O)(=O)c2ccc(CNC(=O)c3cnc4[nH]ncc4c3)nc2)cc1OC` [Example 70, 1H-Pyrazolo[3,4-b]pyridine-5-carboxylic acid [5-(3,4-dimethoxy-benzenesulfonyl)-pyridin-2-ylmethyl]-amide], the IC50 at NAMPT came out at 48.5 nM; in the assay on A2780 cells (setting [1]), 24.6 nM.

Take `O=C(NCc1ccc(S(=O)(=O)c2cc(F)cc(F)c2)cn1)N1Cc2ccncc2C1` [Example 73, 1,3-Dihydro-pyrrolo[3,4-c]pyridine-2-carboxylic acid [5-(3,5-difluoro-benzenesulfonyl)-pyridin-2-ylmethyl]-amide]: the IC50 on NAMPT came to 17.3 nM; in the assay with A2780 cells (setting [2]), 76.5 nM.

For the molecule `CN(C)c1ncc(S(=O)(=O)c2ccc(CNC(=O)c3ccc4nccn4c3)nc2)s1` [Example 74, Imidazo[1,2-a]pyridine-6-carboxylic acid [5-(2-dimethylamino-thiazole-5-sulfonyl)-pyridin-2-ylmethyl]-amide], the IC50 stood at 7.8 nM at NAMPT and 2.4 nM in the assay on A2780 cells (setting [2]).

Consider `CN(C)c1ncc(S(=O)(=O)c2ccc(CNC(=O)c3cc4ccncc4s3)nc2)s1` [Example 75, Thieno[2,3-c]pyridine-2-carboxylic acid [5-(2-dimethylamino-thiazole-5-sulfonyl)-pyridin-2-ylmethyl]-amide], for which the IC50 on NAMPT is 2.2 nM; in the assay with A2780 cells (setting [2]), 0.8 nM.

`CCCn1cc(S(=O)(=O)c2ccc(CNC(=O)c3cc4ccncc4s3)nc2)cn1` [Example 76, Thieno[2,3-c]pyridine-2-carboxylic acid [5-(1-propyl-1H-pyrazole-4-sulfonyl)-pyridin-2-ylmethyl]-amide]: the IC50 is 3.1 nM at NAMPT and 9 nM in the assay on A2780 cells (setting [2]).

Consider `O=C(NCc1ncc(S(=O)(=O)c2cccc(C(F)(F)F)c2)cn1)c1ccc2nccn2c1` [Example 77, Imidazo[1,2-a]pyridine-6-carboxylic acid [5-(3-trifluoromethyl-benzenesulfonyl)-pyrimidin-2-ylmethyl]-amide], for which the IC50 at NAMPT turned out to be 17.6 nM; in the assay with A2780 cells (setting [2]) it was 16.5 nM.

In the case of `O=C(NCc1ccc(S(=O)(=O)c2ccc(C(F)(F)F)nc2)cn1)c1cc2ccncc2s1` [Example 78, Thieno[2,3-c]pyridine-2-carboxylic acid [5-(6-trifluoromethyl-pyridine-3-sulfonyl)-pyridin-2-ylmethyl]-amide], the IC50 worked out at 59.4 nM at NAMPT and 551 nM in the assay with A2780 cells (setting [2]).

Take `O=C(NCc1ccc(S(=O)(=O)c2ccc(C(F)(F)F)nc2)cn1)c1cc2ccncc2o1` [Example 79, Furo[2,3-c]pyridine-2-carboxylic acid [5-(6-trifluoromethyl-pyridine-3-sulfonyl)-pyridin-2-ylmethyl]-amide]: the figures for the IC50 at NAMPT and in the assay with A2780 cells (setting [2]) were 20.5 nM and 124 nM, respectively.

On to `CC(C)n1cc(S(=O)(=O)c2ccc(CNC(=O)N3Cc4ccncc4C3)nc2)cn1` [Example 80, 1,3-Dihydro-pyrrolo[3,4-c]pyridine-2-carboxylic acid [5-(1-isopropyl-1H-pyrazole-4-sulfonyl)-pyridin-2-ylmethyl]-amide], for which the IC50 at NAMPT came to 22.7 nM; in the assay on A2780 cells (setting [2]), 83.2 nM.

As for `O=C(NCc1ncc(S(=O)(=O)c2cccc(C(F)(F)F)c2)cn1)c1cc2ccncc2o1` [Example 81, Furo[2,3-c]pyridine-2-carboxylic acid [5-(3-trifluoromethyl-benzenesulfonyl)-pyrimidin-2-ylmethyl]-amide], the IC50 on NAMPT was 12.3 nM; with A2780 cells (setting [2]), 18.5 nM.

Consider `O=C(NCc1ccc(S(=O)(=O)c2ccc(C(F)(F)F)nc2)cn1)c1ccc2nccn2c1` [Example 82, Imidazo[1,2-a]pyridine-6-carboxylic acid [5-(6-trifluoromethyl-pyridine-3-sulfonyl)-pyridin-2-ylmethyl]-amide], for which the IC50 on NAMPT stood at 72.3 nM; with A2780 cells (setting [2]), 330 nM.

In the case of `CN(C)c1ccc(S(=O)(=O)c2ccc(CNC(=O)c3ccc4nccn4c3)nc2)cn1` [Example 83, Imidazo[1,2-a]pyridine-6-carboxylic acid [5-(6-dimethylamino-pyridine-3-sulfonyl)-pyridin-2-ylmethyl]-amide], the IC50 was determined as 9.1 nM on NAMPT and 7.3 nM in the assay on A2780 cells (setting [2]).

Take `CN(C)c1ccc(S(=O)(=O)c2ccc(CNC(=O)c3cnc4[nH]ncc4c3)nc2)cn1` [Example 84, 1H-Pyrazolo[3,4-b]pyridine-5-carboxylic acid [5-(6-dimethylamino-pyridine-3-sulfonyl)-pyridin-2-ylmethyl]-amide]: the IC50 on NAMPT stood at 27.8 nM; with A2780 cells (setting [2]) it was 20.4 nM.

Regarding `O=C(NCc1ccc(S(=O)(=O)c2cc(F)cc(N3CCOCC3)c2)cn1)c1cnc2[nH]ncc2c1` [Example 85, 1H-Pyrazolo[3,4-b]pyridine-5-carboxylic acid [5-(3-fluoro-5-morpholin-4-yl-benzenesulfonyl)-pyridin-2-ylmethyl]-amide], the IC50 at NAMPT worked out at 32.9 nM; in the assay with A2780 cells (setting [2]), 9.7 nM.

`Nc1ncc2c(n1)CN(C(=O)NCc1ccc(S(=O)(=O)c3cc(F)cc(F)c3)cn1)C2` [Example 86, 2-Amino-5,7-dihydro-pyrrolo[3,4-d]pyrimidine-6-carboxylic acid [5-(3,5-difluoro-benzenesulfonyl)-pyridin-2-ylmethyl]-amide]: the IC50 on NAMPT was 354 nM; in the assay with A2780 cells (setting [1]) it was 2000 nM.

Turning to `O=C(NCc1ccc(S(=O)(=O)N2CCC(N3CCCC3)CC2)cn1)c1cc2ccncc2o1` [Example 91, Furo[2,3-c]pyridine-2-carboxylic acid [5-(4-pyrrolidin-1-yl-piperidine-1-sulfonyl)-pyridin-2-ylmethyl]-amide], the IC50 at NAMPT turned out to be 47.4 nM; with A2780 cells (setting [2]), 45.7 nM.

Take `Cc1ccc(S(=O)(=O)c2ccc(CNC(=O)c3ccc4nccn4c3)nc2)cn1` [Example 92, Imidazo[1,2-a]pyridine-6-carboxylic acid [5-(6-methyl-pyridine-3-sulfonyl)-pyridin-2-ylmethyl]-amide]: the values for the IC50 on NAMPT and in the assay on A2780 cells (setting [1]) were 33.9 nM and 56.8 nM, respectively.

For the molecule `CN(C)c1ncc(S(=O)(=O)c2ccc(CNC(=O)c3cc4ccncc4o3)nc2)s1` [Example 93, Furo[2,3-c]pyridine-2-carboxylic acid [5-(2-dimethylamino-thiazole-5-sulfonyl)-pyridin-2-ylmethyl]-amide], the IC50 on NAMPT came to 4.9 nM; with A2780 cells (setting [2]), 1.16 nM.

As for `Cc1ccc(S(=O)(=O)c2ccc(CNC(=O)c3cc4ccncc4s3)nc2)cn1` [Example 95, Thieno[2,3-c]pyridine-2-carboxylic acid [5-(6-methyl-pyridine-3-sulfonyl)-pyridin-2-ylmethyl]-amide], the IC50 at NAMPT stood at 37.7 nM; with A2780 cells (setting [2]) it was 234 nM.

Regarding `CCS(=O)(=O)c1cccc(S(=O)(=O)c2ccc(CNC(=O)c3ccc4nccn4c3)nc2)c1` [Example 96, Imidazo[1,2-a]pyridine-6-carboxylic acid [5-(3-ethanesulfonyl-benzenesulfonyl)-pyridin-2-ylmethyl]-amide], the IC50 at NAMPT amounted to 19.3 nM; with A2780 cells (setting [2]), 38.1 nM.

`CN(C)c1ncc(S(=O)(=O)c2ccc(CNC(=O)N3Cc4ccncc4C3)nc2)s1` [Example 98, 1,3-Dihydro-pyrrolo[3,4-c]pyridine-2-carboxylic acid [5-(2-dimethylamino-thiazole-5-sulfonyl)-pyridin-2-ylmethyl)-amide]: the IC50 came to 6.6 nM at NAMPT and 4.97 nM with A2780 cells (setting [2]).

Consider `Cn1cc(S(=O)(=O)c2ccc(CNC(=O)N3Cc4ccncc4C3)nc2)cn1` [Example 99, 1,3-Dihydro-pyrrolo[3,4-c]pyridine-2-carboxylic acid [5-(1-methyl-1H-pyrazole-4-sulfonyl)-pyridin-2-ylmethyl]-amide], for which the IC50 is 54.7 nM on NAMPT and 1200 nM in the assay on A2780 cells (setting [2]).

As to `O=C(NCc1ccc(S(=O)(=O)c2cccc(F)c2)cn1)N1Cc2ccncc2C1` [Example 100, 1,3-Dihydro-pyrrolo[3,4-c]pyridine-2-carboxylic acid [5-(3-fluoro-benzenesulfonyl)-pyridin-2-ylmethyl]-amide], the IC50 was 11.1 nM on NAMPT and 76.6 nM in the assay with A2780 cells (setting [2]).

For `O=C(NCc1ccc(S(=O)(=O)C2CCN(C3COC3)CC2)cn1)N1Cc2ccncc2C1` [Example 104, 1,3-Dihydro-pyrrolo[3,4-c]pyridine-2-carboxylic acid [5-(1-oxetan-3-yl-piperidine-4-sulfonyl)-pyridin-2-ylmethyl]-amide], the IC50 on NAMPT amounted to 67.9 nM; in the assay on A2780 cells (setting [2]), 116 nM.

Regarding `CCS(=O)(=O)c1cccc(S(=O)(=O)c2ccc(CNC(=O)c3cnc4[nH]ncc4c3)nc2)c1` [Example 106, 1H-Pyrazolo[3,4-b]pyridine-5-carboxylic acid [5-(3-ethanesulfonyl-benzenesulfonyl)-pyridin-2-ylmethyl]-amide], the IC50 was determined as 135 nM on NAMPT and 328 nM in the assay on A2780 cells (setting [2]).

In the case of `O=C(NCc1ccc(S(=O)(=O)c2ccc(C(F)(F)F)nc2)cn1)c1cnc2[nH]ncc2c1` [Example 107, 1H-Pyrazolo[3,4-b]pyridine-5-carboxylic acid [5-(6-trifluoromethyl-pyridine-3-sulfonyl)-pyridin-2-ylmethyl]-amide], the IC50 at NAMPT is 731 nM; with A2780 cells (setting [1]), 1300 nM.

`CCCC(=O)N1CCC(S(=O)(=O)c2ccc(CNC(=O)N3Cc4ccncc4C3)nc2)CC1` [Example 108, 1,3-Dihydro-pyrrolo[3,4-c]pyridine-2-carboxylic acid [5-(1-butyryl-piperidine-4-sulfonyl)-pyridin-2-ylmethyl]-amide]: the IC50 was determined as 27.7 nM on NAMPT and 358 nM with A2780 cells (setting [2]).

Take `CCS(=O)(=O)c1cccc(S(=O)(=O)c2ccc(CNC(=O)c3cc4ccncc4o3)nc2)c1` [Example 109, N-[[5-(3-ethylsulfonylphenyl)sulfonyl-2-pyridyl]methyl]furo[2,3-c]pyridine-2-carboxamide]: the IC50 worked out at 6.8 nM on NAMPT and 15.1 nM in the assay with A2780 cells (setting [2]).
